Data reported in PubChem BioAssay AID2060506 (Molecular Pharmacology Branch, DTP, NCI, 2025).

Tested on: 598228-144-R-J1-PDC complex spheroid viability
Test: Anticancer human tumor 598228-144-R-J1-PDC patient-derived serous endometrial adenocarcinoma cell line growth inhibition [GQUAD]
Details: for IC50: curve of first compound; for viability, T/C: stronger effect = lower value
Source text: DNA G-quadruplex Stabilizer Agents in Combinations in Complex Spheroids
A high-throughput screen of multi-cell type tumor spheroids was designed to identify active combinations of DNA G-quadruplex stabilizer agents and targeted small molecules. Complex spheroids include a stromal component modeled by human endothelial cells (HUVEC) and fibroblasts modeled by human mesenchymal stem cells (MSCs). The concentration ranges selected for each drug and investigational agent were based upon clinically achievable concentrations if the clinical Cmax of the agent was known.
Compounds. The drugs and investigational agents: pidnarulex (CX-5461; NSC782164), APTO-253 (NSC789042), BRACO-19 (NSC847499), peposertib (NSC802822), ceralasertib (NSC780249), elimusertib (NSC800525), camonsertib (NSC841442), AZD-1390 (NSC803789), olaparib (NSC753686), talazoparib (NSC767125), ART-558 (NSC835418), sotorasib (NSC818433), MRTX-1133 (NSC836407), SN-38 (NSC673596), topotecan (NSC609699), etoposide (NSC141540), doxorubicin (NSC123127), gemcitabine (NSC613327), 5-fluorouracil (NSC19893), paclitaxel (NSC125973), vemurafenib (NSC761431), panobinostat (NSC761190), R-306465 (JNJ-16241199; NSC773264), adavosertib (NSC754352), TP-3654 (NSC805149), carboplatin (NSC241240), KSQ-4279 (NSC840948), and staurosporine (NSC755774) were obtained from the National Cancer Institute (NCI) Developmental Therapeutics Program Chemical Repository (34). The FDA-approved anticancer drug set is available from the NCI Developmental Therapeutics Program. […] The stock solutions were prepared in dimethyl sulfoxide (DMSO, Sigma-Aldrich, St. Louis, MO, cat. D2650) at 800-fold the tested concentration and stored at -70 degrees C prior to their use. All drugs and investigational agents were tested over a range starting from a high concentration at or near the clinical Cmax and decreasing in half-log increments. If the clinical Cmax for an agent had not been determined, the highest concentration tested was 10 microM.
2.3 Cell Culture. All cells were maintained in an incubator at 37 degrees C and 5% CO2 with 95% humidity. The PDC lines were cultured according to standard operating procedures established by the NCI PDMR. All PDCs were thawed and cultured in Matrigel-coated flasks prepared with a working solution of 1X Ham's F-12 nutrient mix, without supplementation (Invitrogen, cat. 11765054), 100 U/mL penicillin-streptomycin (Invitrogen, cat. 15140122), and 2.5% Matrigel (Corning Inc., cat. 354248) for the first three passages. The 857933-349-R-J2-PDC line was cultured in 6C/Colon 1B media, which includes advanced DMEM/F-12 (Thermo Fisher Scientific, cat. 12634028), 10 mM HEPES (Thermo Fisher Scientific, cat. 15630080), 1X GlutaMAX supplement (Thermo Fisher Scientific, cat. 35050061), 0.1 mg/mL primocin (InvivoGen, cat. ant-pm-2), 10% defined fetal bovine serum, heat inactivated (HyClone Laboratories Inc., cat. SH30070.03HI), 50% L-WRN conditioned media (ATCC, cat. CRL-3276), 1.25 mM N-Acetyl-L-cysteine (Sigma-Aldrich, cat. A9165), 10 mM nicotinamide (Sigma-Aldrich, cat. N0636), 1X B-27 supplement (Thermo Fisher Scientific, cat. 17504044), 1X N-2 supplement (Thermo Fisher Scientific, cat. 17502048), 10 microM Y-27632 dihydrochloride (Tocris Bioscience, cat. 1254), and 50 ng/mL human EGF recombinant protein (Thermo Fisher Scientific, cat. PHG0311). The 485176-168-R4-J1-PDC line was cultured in Panc media, which includes all 6C/Colon 1B media components plus 100 ng/mL human FGF-10 (Thermo Fisher Scientific, cat. 100-26), 500 nM SB-431542 (Selleckchem, cat. S1067), and gastrin (Tocris, cat. 3006).
[…]

[1] = second compound 0.0316 µM, first compound 0.0316 µM
[2] = second compound 0.0316 µM, first compound 0.1 µM
[3] = second compound 0.0316 µM, first compound 0.316 µM
[4] = second compound 0.0316 µM, first compound 1 µM
[5] = second compound 0.0316 µM, first compound 3.16 µM
[6] = second compound 0.0316 µM, first compound 10 µM
[7] = second compound 0.1 µM, first compound 0.0316 µM
[8] = second compound 0.1 µM, first compound 0.1 µM
[9] = second compound 0.1 µM, first compound 0.316 µM
[10] = second compound 0.1 µM, first compound 1 µM
[11] = second compound 0.1 µM, first compound 3.16 µM
[12] = second compound 0.1 µM, first compound 10 µM
[13] = second compound 0.316 µM, first compound 0.0316 µM
[14] = second compound 0.316 µM, first compound 0.1 µM
[15] = second compound 0.316 µM, first compound 0.316 µM
[16] = second compound 0.316 µM, first compound 1 µM
[17] = second compound 0.316 µM, first compound 3.16 µM
[18] = second compound 0.316 µM, first compound 10 µM
[19] = second compound 1 µM, first compound 0.0316 µM
[20] = second compound 1 µM, first compound 0.1 µM
[21] = second compound 1 µM, first compound 0.316 µM
[22] = second compound 1 µM, first compound 1 µM
[23] = second compound 1 µM, first compound 3.16 µM
[24] = second compound 1 µM, first compound 10 µM
[25] = second compound 3.16 µM, first compound 0.0316 µM
[26] = second compound 3.16 µM, first compound 0.1 µM
[27] = second compound 3.16 µM, first compound 0.316 µM
[28] = second compound 3.16 µM, first compound 1 µM
[29] = second compound 3.16 µM, first compound 3.16 µM
[30] = second compound 3.16 µM, first compound 10 µM
[31] = second compound 10 µM, first compound 0.0316 µM
[32] = second compound 10 µM, first compound 0.1 µM
[33] = second compound 10 µM, first compound 0.316 µM
[34] = second compound 10 µM, first compound 1 µM
[35] = second compound 10 µM, first compound 3.16 µM
[36] = second compound 10 µM, first compound 10 µM
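Also: spheroids exposed to the agents for one week before reading.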
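For viability, T/C in this document: percent of vehicle DMSO control viability so 100% = untreated growth.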

With CC1COCCN1c1cc(C2(S(C)(=N)=O)CC2)nc(-c2ccnc3[nH]ccc23)n1 (stereo unspecified) + CN(C)c1ccc(Nc2c3ccc(NC(=O)CCN4CCCC4)cc3nc3cc(NC(=O)CCN4CCCC4)ccc23)cc1 the IC50 (second compound 0.0316 µM) was 2870 nM, the IC50 (second compound 0.1 µM) was 8670 nM and the IC50 (second compound 0.316 µM) was > 10000 nM. For the same molecule, the IC50 (second compound 1 µM) was > 10000 nM, the IC50 (second compound 3.16 µM) was > 10000 nM and the IC50 (second compound 10 µM) was 1730 nM. It also gave a viability, T/C [1] of 91.7%, a viability, T/C [2] of 117% and a viability, T/C [3] of 102%. It also gave a viability, T/C [4] of 81.5%, a viability, T/C [5] of 46.5% and a viability, T/C [6] of 47%. It also gave a viability, T/C [7] of 97.7%, a viability, T/C [8] of 122% and a viability, T/C [9] of 98.7%. The viability, T/C [10] was 98.3%, the viability, T/C [11] was 62.7% and the viability, T/C [12] was 48.3%. For the same molecule, the viability, T/C [13] was 97.1%, the viability, T/C [14] was 136% and the viability, T/C [15] was 85%. For the same molecule, the viability, T/C [16] was 61.8%, the viability, T/C [17] was 61.6% and the viability, T/C [18] was 45.9%. For the same molecule, the viability, T/C [19] was 125%, the viability, T/C [20] was 96.6% and the viability, T/C [21] was 103%. The viability, T/C [22] was 70.8%, the viability, T/C [23] was 69.2% and the viability, T/C [24] was 60.1%. The viability, T/C [25] was 125%, the viability, T/C [26] was 89.2% and the viability, T/C [27] was 99.4%. It also gave a viability, T/C [28] of 69.4%, a viability, T/C [29] of 61.7% and a viability, T/C [30] of 57.7%. The viability, T/C [31] was 95.8%, the viability, T/C [32] was 88.5% and the viability, T/C [33] was 89.9%. It also gave a viability, T/C [34] of 64.7%, a viability, T/C [35] of 33.9% and a viability, T/C [36] of 26.6%.
Molecule COc1ccc([C@@H](O)c2cc(-c3ncnc4cc(N5CCOCC5)ccc34)c(F)cc2Cl)nn1 + CN(C)c1ccc(Nc2c3ccc(NC(=O)CCN4CCCC4)cc3nc3cc(NC(=O)CCN4CCCC4)ccc23)cc1 has an IC50 (second compound 0.0316 µM) of 2600 nM, an IC50 (second compound 0.1 µM) of 3830 nM and an IC50 (second compound 0.316 µM) of 2300 nM. It also gave an IC50 (second compound 1 µM) of 2300 nM, an IC50 (second compound 3.16 µM) of 2460 nM and an IC50 (second compound 10 µM) of 790 nM. For the same molecule, the viability, T/C [1] was 96.4%, the viability, T/C [2] was 77.6% and the viability, T/C [3] was 73.4%. It also gave a viability, T/C [4] of 68.2%, a viability, T/C [5] of 44% and a viability, T/C [6] of 32.5%. It also gave a viability, T/C [7] of 121%, a viability, T/C [8] of 94.4% and a viability, T/C [9] of 90.5%. It also gave a viability, T/C [10] of 68.4%, a viability, T/C [11] of 52.2% and a viability, T/C [12] of 36.4%. It also gave a viability, T/C [13] of 89.8%, a viability, T/C [14] of 91.1% and a viability, T/C [15] of 79.3%. It also gave a viability, T/C [16] of 64.4%, a viability, T/C [17] of 44.9% and a viability, T/C [18] of 29.5%. For the same molecule, the viability, T/C [19] was 110%, the viability, T/C [20] was 91.6% and the viability, T/C [21] was 76.3%. It also gave a viability, T/C [22] of 53.3%, a viability, T/C [23] of 52% and a viability, T/C [24] of 33.7%. It also gave a viability, T/C [25] of 117%, a viability, T/C [26] of 108% and a viability, T/C [27] of 103%. The viability, T/C [28] was 58.8%, the viability, T/C [29] was 53.6% and the viability, T/C [30] was 26.2%. The viability, T/C [31] was 106%, the viability, T/C [32] was 73.6% and the viability, T/C [33] was 76.3%. The viability, T/C [34] was 43.3%, the viability, T/C [35] was 26.4% and the viability, T/C [36] was 20.1%.
In the case of O=C(c1cc(Cc2n[nH]c(=O)c3ccccc23)ccc1F)N1CCN(C(=O)C2CC2)CC1 + CN(C)c1ccc(Nc2c3ccc(NC(=O)CCN4CCCC4)cc3nc3cc(NC(=O)CCN4CCCC4)ccc23)cc1, the IC50 (second compound 0.0316 µM) is reported as > 10000 nM, the IC50 (second compound 0.1 µM) is reported as > 10000 nM and the IC50 (second compound 0.316 µM) is reported as > 10000 nM. The IC50 (second compound 1 µM) was > 10000 nM, the IC50 (second compound 3.16 µM) was > 10000 nM and the IC50 (second compound 10 µM) was > 10000 nM. The viability, T/C [1] was 84.9%, the viability, T/C [2] was 92.6% and the viability, T/C [3] was 79.7%. The viability, T/C [4] was 92.9%, the viability, T/C [5] was 95% and the viability, T/C [6] was 75.8%. It also gave a viability, T/C [7] of 110%, a viability, T/C [8] of 101% and a viability, T/C [9] of 91%. For the same molecule, the viability, T/C [10] was 84.4%, the viability, T/C [11] was 87.2% and the viability, T/C [12] was 75.1%. For the same molecule, the viability, T/C [13] was 98%, the viability, T/C [14] was 85.3% and the viability, T/C [15] was 96.6%. The viability, T/C [16] was 91.1%, the viability, T/C [17] was 93.9% and the viability, T/C [18] was 65.9%. For the same molecule, the viability, T/C [19] was 82.5%, the viability, T/C [20] was 93.9% and the viability, T/C [21] was 103%. The viability, T/C [22] was 87.5%, the viability, T/C [23] was 87.4% and the viability, T/C [24] was 54.1%. The viability, T/C [25] was 98.8%, the viability, T/C [26] was 91.8% and the viability, T/C [27] was 92.8%. It also gave a viability, T/C [28] of 88.3%, a viability, T/C [29] of 92.9% and a viability, T/C [30] of 68.3%. For the same molecule, the viability, T/C [31] was 76.4%, the viability, T/C [32] was 89.3% and the viability, T/C [33] was 91.9%. The viability, T/C [34] was 73.8%, the viability, T/C [35] was 89.7% and the viability, T/C [36] was 50.3%.
